In data set [1] the test system is T-tropic HIV. The following applies: patients that are dual tropic or have only the T-tropic form of the virus; cited from earlier work.
Data set [2] deals with T1, human CXCR4 (Homo sapiens, UniProt P61073).
T1 construct: expressed in transfected cells; host or cells: HEK-293 cells (stably expressing human macrophage scavenging receptor) transduced with human CXCR4 BacMam and Gqi5 BacMam baculoviruses
The data set can be described thus: Functional FLIPR assay (block of SDF-1 alpha induced [Ca2+]i change). The class given is cell-based. The following applies: HEK-293 cells with human CXCR4 BacMam and Gqi5 BacMam; antagonism of SDF-1 alpha; read-out: Functional assay (pIC50) (converted). The protocol:
Human embryonic kidney (HEK-293) cells were maintained and harvested as described above. Cells were plated in 96-well, black clear bottom, poly-lysine coated plates at a concentration of 40,000 cells per well in a final volume of 100 ul containing human CXCR4BacMam (MOI=25) and Gqi5 BacMam (MOI=12.5). The cells were incubated at 37° C., 5% CO2, 95% humidity for 24 h to allow for protein expression.
After the required incubation time the cells were washed once with 50 ul of fresh serum-free DMEM/F12 media containing probenicid. 50 ul of dye solution was then added to the cells (Calcium Plus Assay Kit Dye; Molecular Devices) was dissolved in 200 ml of the above probenicid/BSA containing media and incubated for 1 h. Cell plates were transferred to a Fluorometric Imaging Plate Reader (FLIPR). Upon addition the effect of the compounds on the change in [Ca^2+]i was examined to determine if the compounds were agonists or antagonists (ability to block SDF-1 alpha activity) at the CXCR4 receptor. IC50 values are determined and pKb values are calculated using the Leff and Dougall equation: KB=IC50/((2+([agonist]/EC50ˆb)ˆ1/b−1) Where IC50 is that defined by the antagonist concentration-response curve [agonist] is the EC80 concentration of agonist used EC50 is that defined by the agonist concentration-response curve b is the slope of the agonist concentration-response curve.

The test system of data set [3] is HIV-1 gp160 (from the HXB2 HIV strain). The data set can be described thus: Cell/cell fusion assay (HEK-293 expressing HIV-1 tat, rev, gp160 with HOS hCXCR4/hCCR5/hCD4/pHIV-LTR-luciferase cells). The class given is cell-based. The following applies: Human immunodeficiency virus 1, HXB2, HEK293, 24 h, read-out: Fusion assay (pIC50), luciferase readout after 24 h (converted). From the text: The complete coding sequences of HIV-1 tat (GenBank Accession No. X07861) and rev (GenBank Accession No. M34378) were cloned into pcDNA3.1 expression vectors containing G418 and hygromycin resistance genes, respectively. The complete coding sequence of the HIV-1 (HXB2 strain) gp160 envelope gene (nucleotide bases 6225-8795 of GenBank Accession No. K03455) was cloned into plasmid pCRII-TOPO. The three HIV genes were additionally inserted into the baculovirus shuttle vector, pFastBacMam1, under the transcriptional control of the CMV promoter. A construction of the pHIV-I LTR containing mutated NFkB sequences linked to the luciferase reporter gene was prepared by digesting pcDNA3.1, containing the G418 resistance gene, with Nru I and Bam HI to remove the CMV promoter. LTR-luc was then cloned into the Nru I/Bam HI sites of the plasmid vector. Plasmid preparations were performed after the plasmids were amplified in Escherichia coli strain DH5-alpha. The fidelity of the inserted sequences was confirmed by double-strand nucleotide sequencing using an ABI Prism Model 377 automated sequencer.
Recombinant BacMam baculoviruses were constructed from pFastBacMam shuttle plasmids by using the bacterial cell-based Bac-to-Bac system. Viruses were propagated in Sf9 (Spodoptera frugiperda) cells cultured in Hink's TNM-FH Insect media supplemented with 10% (v/v) fetal bovine serum and 0.1% (v/v) pluronic F-68 according to established protocols.
Human osteosarcoma (HOS) cells that naturally express human CXCR4 were transfected with human CCR5, human CD4 and the pHIV-LTR-luciferase plasmid using FuGENE 6 transfection reagent. Single cells were isolated and grown under selection condition in order to generate a stable HOS (hCXCR4/hCCR5/hCD4/pHIV-LTR-luciferase) clonal cell line. The cells were maintained in Dulbeccos modified Eagles media supplemented with 10% fetal calf serum (FCS), G418 (400 ug/ml), puromycin (1 ug/ml), mycophenolic acid (40 ug/ml), xanthine (250 ug/ml) and hypoxanthine (13.5 ug/ml) to maintain a selection pressure for cells expressing the LTR-luciferase, hCCR5 and hCD4, respectively. Human embryonic kidney (HEK-293) cells stably transfected to express the human macrophage scavenging receptor (Class A, type 1; GenBank Accession No. D90187), were maintained in DMEM/F-12 media (1:1) supplemented with 10% FCS and 1.5 ug/ml puromycin. The expression of this receptor by the HEK-293 cells enhances their ability to stick to tissue culture treated plasticware.
HEK-293 cells were harvested using enzyme-free cell dissociation buffer. The cells were resuspended in DMEM/F-12 media supplemented with 10% FCS and 1.5 ug/ml and counted. Tranductions were performed by direct addition of BacMam baculovirus containing insect cell media to cells. The cells were simultaneously transduced with BacMam baculovirus expressing HIV-1 tat, HIV-1 rev and HIV-1 gp160 (from the HXB2 HIV strain). Routinely an MOI of 10 of each virus was added to the media containing the cells. 2 mM butyric acid was also added to the cells at this stage to increase protein expression in transduced cells. The cells were subsequently mixed and seeded into a flask at 30 million cells per T225. The cells were incubated at 37° C., 5% CO2, 95% humidity for 24 h to allow for protein expression.
HEK and HOS cells were harvested in DMEM/F-12 media containing 2% FCS and DMEM media containing 2% FCS, respectively, with no selection agents added. Compounds were plated as 1 ul spots in 100% DMSO on a 96-well CulturPlate plates. HOS cells (50 ul) were added first to the wells, followed immediately by the HEK cells (50 ul). The final concentration of each cell type was 20,000 cells per well. Following these additions, the cells were returned to a tissue culture incubator (37° C.; 5% CO2/95% air) for an additional 24 h.
Following the 24 h incubation, total cellular luciferase activity was measured using the LucLite Plus assay kit (Packard, Meridien, Conn.). […]

Data set [4] in a line: Compound cytotoxicity in the absence of virus addition (CellTiter-Glo). The class given is cell-based. The following applies: human; non-infected HOS cultures; read-out: Cytotox (pIC50) (converted). A digest of the protocol:
(§1)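 Cytotoxicity was measured by CellTiter-Glo in virus-free cultures, while antiviral activity used Steady-Glo luciferase after 96 h infection with T-tropic IIIB virus (~2 million RLU/well). Both used HOS hCXCR4/hCCR5/hCD4/pHIV-LTR-luciferase cells in 2% FCS DMEM, with compound added 1 h before virus.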
On the technique in general: ATP-based viability assays read luminescence as a measure of living cells.

In data set [5] the test system is HIV-1 IIIB (T-tropic, CXCR4 utilizing). As to the kind of experiment: HOS HIV-1 infectivity assay. It counts as cell-based. An outline of the steps:
as §1

[6] abbreviates: Human immunodeficiency virus 1, IIIB, as determined by the infectivity assay, strain not stated in Table 2, read-out: Activity Level.
The mark [7] stands for this setting: Human immunodeficiency virus 1, HIV-1 IIIB, HOS cells, 96 h, luciferase readout, read-out: HOS (3B).

Read-outs that look alike come from different tables or passages of the source. Where only a bound is given, the exact number is not on record here.

T1 sequence (P61073 whole entry): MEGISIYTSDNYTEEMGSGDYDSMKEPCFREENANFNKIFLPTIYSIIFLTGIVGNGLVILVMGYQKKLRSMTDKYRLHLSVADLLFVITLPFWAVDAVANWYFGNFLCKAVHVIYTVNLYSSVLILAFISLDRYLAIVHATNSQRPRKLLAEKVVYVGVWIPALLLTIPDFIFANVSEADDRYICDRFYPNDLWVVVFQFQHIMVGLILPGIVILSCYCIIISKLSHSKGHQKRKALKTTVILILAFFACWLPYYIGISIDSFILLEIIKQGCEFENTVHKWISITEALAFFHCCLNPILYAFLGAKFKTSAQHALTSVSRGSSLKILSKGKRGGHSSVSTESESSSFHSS

As for `c1cc(CN2CCCNCCNCCCNCC2)ccc1CN1CCCNCCNCCCNCC1` [AMD-3100], the “T-tropic HIV viral load” value in data set [1] was “significantly reduce T-tropic HIV viral load”.
With `CN(Cc1nc2cc(CNCC3CCNCC3)ccc2[nH]1)C1CCCc2cccnc21` (stereo not drawn) [Example 19, N-Methyl-N-[(5-{[(4-piperidinylmethyl)amino]methyl}-1H-benzimidazol-2-yl)methyl]-5,6,7,8-tetrahydro-8-quinolinamine], the IC50 in data set [2] is 251 nM; in data set [3], 501 nM; in data set [5] (setting [6]), 100 to 500 nM; in data set [5] (setting [7]), 167 nM. The IC50 at 96 h in data set [4] is above 100000 nM.
Regarding `CN(C)CCCNC(=O)c1cccc2[nH]c(CN(C)C3CCCc4cccnc43)nc12` (stereo not drawn) [Example 29, N-[3-(Dimethylamino)propyl]-2-{[methyl(5,6,7,8-tetrahydro-8-quinolinyl)amino]methyl}-1H-benzimidazole-4-carboxamide], the IC50 is 132 nM in data set [2], 257 nM in data set [3], below 100 nM in data set [5] (setting [6]) and 81 nM in data set [5] (setting [7]). In addition, the IC50 at 96 h in data set [4] was above 100000 nM.
For `CN(Cc1nc2cccc(C(=O)NCCc3c[nH]cn3)c2n1C)C1CCCc2cccnc21` (stereo not drawn) [Example 7, N-[2-(1H-Imidazol-4-yl)ethyl]-1-methyl-2-{[methyl(5,6,7,8-tetrahydro-8-quinolinyl)amino]methyl}-1H-benzimidazole-7-carboxamide] the same measures were 8.51 nM, 55 nM, below 100 nM, 8 nM and above 100000 nM.
For `CN(Cc1nc2c(CN3CCNCC3)cccc2[nH]1)C1CCCc2cccnc21` (stereo not drawn) [Example 33, N-Methyl-N-{[4-(1-piperazinylmethyl)-1H-benzimidazol-2-yl]methyl}-5,6,7,8-tetrahydro-8-quinolinamine] the same measures were 15.1 nM, 162 nM, below 100 nM, 13 nM and above 100000 nM.
For `CN(Cc1nc2c(CNCCc3c[nH]cn3)cccc2[nH]1)C1CCCc2cccnc21` (stereo not drawn) [Example 32, N-{[4-({[2-(1H-Imidazol-4-yl)ethyl]amino}methyl)-1H-benzimidazol-2-yl]methyl}-N-methyl-5,6,7,8-tetrahydro-8-quinolinamine] the same measures were 66.1 nM, 85.1 nM, below 100 nM, 45 nM and 7590 nM.
Regarding `CN(Cc1nc2cc(CNCCCN)ccc2[nH]1)C1CCCc2cccnc21` (stereo not drawn) [Example 18, N-[(2-{[Methyl(5,6,7,8-tetrahydro-8-quinolinyl)amino]methyl}-1H-benzimidazol-5-yl)methyl]-1,3-propanediamine], the IC50 in data set [2] was 151 nM; in data set [3], 468 nM; in data set [5] (setting [6]), 100 to 500 nM; in data set [5] (setting [7]), 160 nM. For the same molecule, in data set [4], the IC50 at 96 h is above 100000 nM.
As to `CN(Cc1nc2cc(CN)ccc2[nH]1)C1CCCc2cccnc21` (stereo not drawn) [Example 17, N-{[5-(Aminomethyl)-1H-benzimidazol-2-yl]methyl}-N-methyl-5,6,7,8-tetrahydro-8-quinolinamine], the IC50 in data set [2] was 257 nM; in data set [3], 1290 nM; in data set [5] (setting [6]), 500 to 10000 nM; in data set [5] (setting [7]), 1360 nM. In data set [4], the IC50 at 96 h is above 100000 nM.
For `CCN(Cc1nc2cc(C(=O)NCCc3cnc[nH]3)ccc2[nH]1)C1CCCc2cccnc21` (stereo not drawn) [Example 12, 2-{[Ethyl(5,6,7,8-tetrahydro-8-quinolinyl)amino]methyl}-N-[2-(1H-imidazol-4-yl)ethyl]-1H-benzimidazole-5-carboxamide] the same measures were 447 nM, 1170 nM, 100 to 500 nM, 179 nM and above 100000 nM.
For `CN1CCN(C(=O)c2cccc3[nH]c(CN(C)C4CCCc5cccnc54)nc23)CC1` (stereo not drawn) [Example 22, N-Methyl-N-({4-[(4-methyl-1-piperazinyl)carbonyl]-1H-benzimidazol-2-yl}methyl)-5,6,7,8-tetrahydro-8-quinolinamine] the same measures were 170 nM, 1050 nM, 100 to 500 nM, 331 nM and above 100000 nM.
In the case of `CN1CCN(c2cccc3nc(CN(C)C4CCCc5cccnc54)[nH]c23)CC1` (stereo not drawn) [Example 35, N-methyl-N-{[4-(4-methyl-1-piperazinyl)-1H-benzimidazol-2-yl]methyl}-5,6,7,8-tetrahydro-8-quinolinamine], the IC50 in data set [2] was 5.89 nM; in data set [3] it was 0.389 nM; in data set [5] (setting [6]), below 100 nM; in data set [5] (setting [7]), 1.6 nM. The IC50 at 96 h in data set [4] was above 100000 nM.
